Source: ChEMBL document CHEMBL4138259, “Discovery of JTZ-951: A HIF Prolyl Hydroxylase Inhibitor for the Treatment of Renal Anemia” (ACS Med Chem Lett, 2017)
One block for each compound: values may come before it. Active and inactive are the calls of the source. No cut-off for these calls is given here.

Key:
[1] = test system: Rattus norvegicus; test: Toxicity in CD(SD) rat assessed as induction of anorexia at 100 mg/kg, po administered as single dose; assay type: organism-based; conditions: in vivo
[2] = test system: Rattus norvegicus; test: Upregulation of plasma EPO level in CD(SD) rat at 10 mg/kg, po administered as single dose measured after 8 hrs by RIA; assay type: functional
[3] = test system: Mus musculus; test: Upregulation of plasma EPO level in Balb/c mouse at 10 mg/kg, po administered as single dose measured after 8 hrs by ELISA; assay type: functional
[4] = in vitro; conditions: human, Caco-2
[5] = test system: Rattus norvegicus; test: Antianemic activity in CD(SD) rat assessed as increase in hemoglobin levels at 10 mg/kg, po administered once daily for 28 days; assay type: functional, organism-based
[6] = test system: Rattus norvegicus; test: Antianemic activity in CD(SD) rat assessed as increase in hemoglobin levels at 3 mg/kg, po administered once daily for 28 days; assay type: functional, organism-based
[7] = Metabolic stability in cynomolgus monkey liver microsomes assessed as compound remaining at 10 uM after 120 mins in presence of NADPH by Radio-HPLC analysis; assay type: ADME, Macaca fascicularis, microsome; conditions: read-out: Stability
[8] = Solubility of the compound in FeSSIF after 4 hrs by LC-MS analysis; assay type: physicochemical
[9] = target: T1, Cytochrome P450 2B6 (Homo sapiens, UniProt P20813); test: Inhibition of CYP2B6 in human liver microsomes by LC-MS/MS analysis; assay type: ADME
T1 sequence (P20813 whole entry): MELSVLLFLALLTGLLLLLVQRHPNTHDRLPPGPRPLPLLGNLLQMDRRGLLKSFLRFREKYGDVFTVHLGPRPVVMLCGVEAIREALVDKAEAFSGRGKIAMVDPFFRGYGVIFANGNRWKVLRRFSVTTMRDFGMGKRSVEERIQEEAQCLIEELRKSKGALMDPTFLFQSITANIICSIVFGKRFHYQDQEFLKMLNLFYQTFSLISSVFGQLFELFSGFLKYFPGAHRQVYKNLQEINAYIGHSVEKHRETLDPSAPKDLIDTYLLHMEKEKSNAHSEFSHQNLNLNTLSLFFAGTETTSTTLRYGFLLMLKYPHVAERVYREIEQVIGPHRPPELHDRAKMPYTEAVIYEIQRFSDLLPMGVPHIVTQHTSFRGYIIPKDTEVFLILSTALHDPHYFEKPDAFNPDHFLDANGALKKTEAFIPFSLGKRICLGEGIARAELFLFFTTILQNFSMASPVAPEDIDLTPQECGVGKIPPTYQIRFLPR

[10] = Oral bioavailability in CD(SD) rat at 1 mg/kg; assay type: ADME, organism-based; conditions: in vivo
[11] = Half life in CD(SD) rat at 0.3 mg/kg, iv; assay type: ADME, organism-based; conditions: in vivo
[12] = target: Cytochrome P450 3A4 (Homo sapiens, UniProt P08684); test: Inhibition of CYP3A4 in human liver microsomes using midozolam as substrate by LC-MS/MS analysis; assay type: ADME
[13] = Cmax in CD(SD) rat at 1 mg/kg, po; assay type: ADME, organism-based; design: dose 1 mg/kg, route oral; conditions: in vivo
[14] = Metabolic stability in Beagle dog liver microsomes assessed as compound remaining at 10 uM after 120 mins in presence of NADPH by Radio-HPLC analysis; assay type: ADME, Canis lupus familiaris, microsome; conditions: read-out: Stability
[15] = Volume of distribution at steady state in CD(SD) rat at 0.3 mg/kg, iv; assay type: ADME, organism-based; conditions: in vivo, read-out: Vdss
[16] = Tmax in CD(SD) rat at 1 mg/kg, po; assay type: ADME, organism-based; conditions: in vivo
[17] = test system: Rattus norvegicus; test: Antianemic activity in po dosed CD(SD) rat assessed as increase in hemoglobin levels administered once daily for 28 days; assay type: functional, organism-based
[18] = target: Cytochrome P450 3A5 (Homo sapiens, UniProt P20815); test: Inhibition of CYP3A5 in human liver microsomes using midazolam as substrate by LC-MS/MS analysis; assay type: ADME
[19] = MRT in CD(SD) rat at 0.3 mg/kg, iv; assay type: ADME, organism-based; conditions: in vivo
[20] = target: Cytochrome P450 2D6 (Homo sapiens, UniProt P10635); test: Inhibition of CYP2D6 in human liver microsomes by LC-MS/MS analysis; assay type: ADME
[21] = target: Cytochrome P450 2C9 (Homo sapiens, UniProt P11712); test: Inhibition of CYP2C9 in human liver microsomes by LC-MS/MS analysis; assay type: ADME
[22] = Solubility of the compound in FaSSIF after 4 hrs by LC-MS analysis; assay type: physicochemical
[23] = target: T2, Cytochrome P450 2C8 (Homo sapiens, UniProt P10632); test: Inhibition of CYP2C8 in human liver microsomes by LC-MS/MS analysis; assay type: ADME
T2 sequence (P10632 whole entry): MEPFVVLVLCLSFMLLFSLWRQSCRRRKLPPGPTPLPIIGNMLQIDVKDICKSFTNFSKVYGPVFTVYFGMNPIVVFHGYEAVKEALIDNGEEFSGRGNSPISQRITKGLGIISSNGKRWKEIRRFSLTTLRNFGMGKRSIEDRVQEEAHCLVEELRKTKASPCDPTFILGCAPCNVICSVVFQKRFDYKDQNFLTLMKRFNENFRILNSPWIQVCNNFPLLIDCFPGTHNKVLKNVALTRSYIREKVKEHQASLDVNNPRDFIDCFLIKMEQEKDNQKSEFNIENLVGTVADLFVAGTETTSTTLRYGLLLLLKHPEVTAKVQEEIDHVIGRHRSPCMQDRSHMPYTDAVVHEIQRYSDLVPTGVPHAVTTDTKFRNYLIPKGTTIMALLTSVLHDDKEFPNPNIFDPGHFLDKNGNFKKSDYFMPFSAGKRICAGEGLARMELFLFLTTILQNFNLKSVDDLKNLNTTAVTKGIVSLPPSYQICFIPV

[24] = target: T3, Cytochrome P450 1A2 (Homo sapiens, UniProt P05177); test: Inhibition of CYP1A2 in human liver microsomes by LC-MS/MS analysis; assay type: ADME
T3 sequence (P05177 whole entry): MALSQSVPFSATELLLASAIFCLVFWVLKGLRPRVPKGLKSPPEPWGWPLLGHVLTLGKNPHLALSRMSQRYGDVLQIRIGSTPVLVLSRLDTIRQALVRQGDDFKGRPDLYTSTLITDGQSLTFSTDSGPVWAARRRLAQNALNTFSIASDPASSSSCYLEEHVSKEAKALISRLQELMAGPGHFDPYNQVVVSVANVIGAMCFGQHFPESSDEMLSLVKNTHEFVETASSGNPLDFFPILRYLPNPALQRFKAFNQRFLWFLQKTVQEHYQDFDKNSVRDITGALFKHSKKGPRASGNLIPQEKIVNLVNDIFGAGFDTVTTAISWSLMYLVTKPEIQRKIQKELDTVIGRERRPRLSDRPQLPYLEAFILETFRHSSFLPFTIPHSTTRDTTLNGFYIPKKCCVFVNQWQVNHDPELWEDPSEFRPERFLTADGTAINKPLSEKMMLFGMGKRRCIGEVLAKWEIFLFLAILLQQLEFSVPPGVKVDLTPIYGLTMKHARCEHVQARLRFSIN

[25] = target: Cytochrome P450 2C19 (Homo sapiens, UniProt P33261); test: Inhibition of CYP2C19 in human liver microsomes by LC-MS/MS analysis; assay type: ADME
[26] = target: T4, Cytochrome P450 2A6 (Homo sapiens, UniProt P11509); test: Inhibition of CYP2A6 in human liver microsomes by LC-MS/MS analysis; assay type: ADME
T4 sequence (P11509 whole entry): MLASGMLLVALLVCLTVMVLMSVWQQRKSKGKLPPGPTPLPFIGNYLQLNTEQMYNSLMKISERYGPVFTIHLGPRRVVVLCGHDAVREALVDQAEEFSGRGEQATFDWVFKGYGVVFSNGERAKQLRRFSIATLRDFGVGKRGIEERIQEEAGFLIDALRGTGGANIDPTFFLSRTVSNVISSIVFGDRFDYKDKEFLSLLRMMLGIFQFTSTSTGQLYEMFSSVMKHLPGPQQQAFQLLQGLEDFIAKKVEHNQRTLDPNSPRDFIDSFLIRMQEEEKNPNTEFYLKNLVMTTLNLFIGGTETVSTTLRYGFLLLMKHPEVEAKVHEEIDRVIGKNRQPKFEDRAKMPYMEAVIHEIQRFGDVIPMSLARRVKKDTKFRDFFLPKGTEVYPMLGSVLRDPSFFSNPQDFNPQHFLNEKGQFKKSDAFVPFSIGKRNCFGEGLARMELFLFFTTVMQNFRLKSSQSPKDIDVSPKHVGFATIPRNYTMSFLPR

[27] = target: Egl nine homolog 1 (Homo sapiens, UniProt Q9GZT9); test: Inhibition of PHD2 in human Hep3B cells assessed as increase in EPO release after 24 hrs by ELISA; assay type: cell-based
[28] = Metabolic stability in human pooled liver microsomes assessed as compound remaining at 10 uM after 120 mins in presence of NADPH by Radio-HPLC analysis; assay type: ADME, microsome; conditions: read-out: Stability
[29] = Metabolic stability in Sprague-Dawley rat liver microsomes assessed as compound remaining at 10 uM after 120 mins in presence of NADPH by Radio-HPLC analysis; assay type: ADME, microsome; conditions: read-out: Stability
[30] = target: Voltage-gated inwardly rectifying potassium channel KCNH2 (Homo sapiens, UniProt Q12809); test: Inhibition of human ERG expressed in HEK293 cells at holding potential of -80 mV by whole cell patch clamp method; assay type: cell-based
[31] = Total clearance in CD(SD) rat at 0.3 mg/kg, iv; assay type: ADME, organism-based; conditions: in vivo

Cytochrome P450 2D6, sequence (P10635 whole entry): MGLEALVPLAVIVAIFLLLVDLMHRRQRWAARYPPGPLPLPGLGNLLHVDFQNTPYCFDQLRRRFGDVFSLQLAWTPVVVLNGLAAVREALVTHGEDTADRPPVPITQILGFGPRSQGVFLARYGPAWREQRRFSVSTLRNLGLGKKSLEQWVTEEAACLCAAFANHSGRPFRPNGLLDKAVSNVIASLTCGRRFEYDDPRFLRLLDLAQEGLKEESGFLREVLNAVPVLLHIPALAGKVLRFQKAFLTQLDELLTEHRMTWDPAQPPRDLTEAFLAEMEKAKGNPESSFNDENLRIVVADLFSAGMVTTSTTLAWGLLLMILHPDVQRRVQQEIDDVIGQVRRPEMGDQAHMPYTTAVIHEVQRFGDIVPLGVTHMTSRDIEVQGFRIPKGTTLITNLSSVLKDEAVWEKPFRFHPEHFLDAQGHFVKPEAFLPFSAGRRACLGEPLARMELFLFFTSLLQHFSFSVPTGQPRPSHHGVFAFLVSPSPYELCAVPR
Cytochrome P450 3A4, sequence (P08684 whole entry): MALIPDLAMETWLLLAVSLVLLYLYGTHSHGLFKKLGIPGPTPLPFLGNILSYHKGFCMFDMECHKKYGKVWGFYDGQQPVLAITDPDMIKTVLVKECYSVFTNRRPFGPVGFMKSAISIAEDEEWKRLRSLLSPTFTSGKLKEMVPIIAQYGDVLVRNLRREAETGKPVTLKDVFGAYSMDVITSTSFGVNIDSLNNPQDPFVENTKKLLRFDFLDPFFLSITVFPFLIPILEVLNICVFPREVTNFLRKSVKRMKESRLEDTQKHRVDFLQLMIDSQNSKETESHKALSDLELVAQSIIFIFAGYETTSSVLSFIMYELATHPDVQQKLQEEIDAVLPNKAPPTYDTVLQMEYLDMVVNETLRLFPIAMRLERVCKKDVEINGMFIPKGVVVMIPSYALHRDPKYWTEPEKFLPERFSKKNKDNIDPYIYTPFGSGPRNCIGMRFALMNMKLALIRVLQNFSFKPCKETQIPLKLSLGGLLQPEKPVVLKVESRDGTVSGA
Cytochrome P450 2C9, sequence (P11712 whole entry): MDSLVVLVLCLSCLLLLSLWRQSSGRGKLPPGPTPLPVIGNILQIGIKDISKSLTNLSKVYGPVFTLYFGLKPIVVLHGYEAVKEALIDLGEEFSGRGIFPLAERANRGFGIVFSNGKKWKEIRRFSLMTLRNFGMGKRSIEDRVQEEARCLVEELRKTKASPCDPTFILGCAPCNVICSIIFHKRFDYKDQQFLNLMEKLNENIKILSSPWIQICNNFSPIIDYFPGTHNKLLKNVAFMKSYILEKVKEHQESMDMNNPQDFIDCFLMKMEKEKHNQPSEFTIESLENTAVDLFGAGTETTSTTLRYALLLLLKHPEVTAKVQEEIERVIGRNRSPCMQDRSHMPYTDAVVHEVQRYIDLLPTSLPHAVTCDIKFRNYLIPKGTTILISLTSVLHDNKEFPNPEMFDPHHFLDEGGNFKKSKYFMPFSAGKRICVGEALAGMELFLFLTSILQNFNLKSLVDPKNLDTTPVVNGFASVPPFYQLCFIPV
Cytochrome P450 3A5, sequence (P20815 whole entry): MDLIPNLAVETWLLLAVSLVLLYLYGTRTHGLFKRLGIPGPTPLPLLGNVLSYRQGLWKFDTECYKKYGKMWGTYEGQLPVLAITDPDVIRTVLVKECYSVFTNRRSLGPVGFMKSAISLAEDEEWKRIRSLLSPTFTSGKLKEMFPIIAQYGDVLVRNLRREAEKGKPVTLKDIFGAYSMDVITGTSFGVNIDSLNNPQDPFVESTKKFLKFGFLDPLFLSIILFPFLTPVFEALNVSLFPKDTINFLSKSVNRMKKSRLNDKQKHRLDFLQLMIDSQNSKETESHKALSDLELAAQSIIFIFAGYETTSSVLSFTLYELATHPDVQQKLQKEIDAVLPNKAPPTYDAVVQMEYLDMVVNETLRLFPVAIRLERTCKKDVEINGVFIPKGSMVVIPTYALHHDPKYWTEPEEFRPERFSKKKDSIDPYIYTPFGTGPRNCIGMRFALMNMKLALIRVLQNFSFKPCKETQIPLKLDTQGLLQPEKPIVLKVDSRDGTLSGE
Egl nine homolog 1, sequence (Q9GZT9 whole entry): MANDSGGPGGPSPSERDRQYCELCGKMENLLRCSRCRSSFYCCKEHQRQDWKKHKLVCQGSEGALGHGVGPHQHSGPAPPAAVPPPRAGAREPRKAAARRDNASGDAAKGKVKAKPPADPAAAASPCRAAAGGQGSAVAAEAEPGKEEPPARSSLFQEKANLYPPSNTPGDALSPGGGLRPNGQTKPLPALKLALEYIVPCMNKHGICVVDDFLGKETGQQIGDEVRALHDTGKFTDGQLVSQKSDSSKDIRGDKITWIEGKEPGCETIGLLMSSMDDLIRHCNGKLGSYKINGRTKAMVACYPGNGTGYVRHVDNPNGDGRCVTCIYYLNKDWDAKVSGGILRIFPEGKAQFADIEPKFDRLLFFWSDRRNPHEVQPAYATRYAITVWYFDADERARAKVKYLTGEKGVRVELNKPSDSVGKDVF
Cytochrome P450 2C19, sequence (P33261 whole entry): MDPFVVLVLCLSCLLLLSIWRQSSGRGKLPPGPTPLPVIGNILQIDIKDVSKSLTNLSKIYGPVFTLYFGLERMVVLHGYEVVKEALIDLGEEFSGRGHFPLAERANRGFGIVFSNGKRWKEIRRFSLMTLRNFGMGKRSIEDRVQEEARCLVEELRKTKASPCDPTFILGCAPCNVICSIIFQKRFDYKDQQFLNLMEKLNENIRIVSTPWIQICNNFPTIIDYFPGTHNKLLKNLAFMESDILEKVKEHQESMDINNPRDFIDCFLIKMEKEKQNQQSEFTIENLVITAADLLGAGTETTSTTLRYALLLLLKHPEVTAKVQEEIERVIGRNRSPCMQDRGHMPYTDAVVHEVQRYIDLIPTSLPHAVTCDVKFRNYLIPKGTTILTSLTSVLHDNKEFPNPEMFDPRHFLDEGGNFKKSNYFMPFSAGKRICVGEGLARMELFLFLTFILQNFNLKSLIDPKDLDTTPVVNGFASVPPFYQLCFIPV
Voltage-gated inwardly rectifying potassium channel KCNH2, sequence (Q12809 whole entry): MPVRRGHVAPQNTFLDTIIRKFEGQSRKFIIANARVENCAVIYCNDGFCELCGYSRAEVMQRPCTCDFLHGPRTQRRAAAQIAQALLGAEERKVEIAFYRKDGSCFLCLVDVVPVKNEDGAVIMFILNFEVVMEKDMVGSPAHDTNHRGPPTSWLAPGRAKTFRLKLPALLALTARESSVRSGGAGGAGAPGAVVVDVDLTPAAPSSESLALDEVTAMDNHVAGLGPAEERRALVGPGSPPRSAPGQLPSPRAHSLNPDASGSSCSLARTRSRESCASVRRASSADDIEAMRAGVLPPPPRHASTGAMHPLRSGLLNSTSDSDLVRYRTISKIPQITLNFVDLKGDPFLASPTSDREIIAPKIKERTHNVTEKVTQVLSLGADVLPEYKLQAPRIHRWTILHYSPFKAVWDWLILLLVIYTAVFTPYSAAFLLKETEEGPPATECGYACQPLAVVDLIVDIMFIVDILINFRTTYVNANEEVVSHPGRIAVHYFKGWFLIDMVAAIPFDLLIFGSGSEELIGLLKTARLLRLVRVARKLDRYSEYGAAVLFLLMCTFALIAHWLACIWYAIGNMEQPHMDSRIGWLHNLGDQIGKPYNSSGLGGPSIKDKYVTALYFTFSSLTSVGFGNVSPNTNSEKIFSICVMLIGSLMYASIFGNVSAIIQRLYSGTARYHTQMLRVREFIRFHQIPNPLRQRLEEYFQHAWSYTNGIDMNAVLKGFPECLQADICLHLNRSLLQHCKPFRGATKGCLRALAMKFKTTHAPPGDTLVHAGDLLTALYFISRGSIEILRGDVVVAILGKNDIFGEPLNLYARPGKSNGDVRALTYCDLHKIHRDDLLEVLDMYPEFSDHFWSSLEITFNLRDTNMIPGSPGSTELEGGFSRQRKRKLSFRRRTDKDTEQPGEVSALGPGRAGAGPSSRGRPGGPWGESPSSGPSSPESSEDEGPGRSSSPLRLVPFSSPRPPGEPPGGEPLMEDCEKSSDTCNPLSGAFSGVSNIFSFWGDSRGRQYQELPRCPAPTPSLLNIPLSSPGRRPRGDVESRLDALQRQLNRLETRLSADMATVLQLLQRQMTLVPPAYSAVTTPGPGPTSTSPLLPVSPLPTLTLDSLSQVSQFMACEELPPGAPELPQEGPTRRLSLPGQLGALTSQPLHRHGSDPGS

Papp A→B at 2 h, 25 µM [4]: 6.1 ×10⁻⁶ cm/s
SMILES: O=C(O)CNC(=O)c1c(O)cc(-c2cccc(Cl)c2)n2ncnc12
Activity [1]: Toxic
Activity [2]: 7900 pg/mL
Activity [3]: >15000 pg/mL

Papp A→B at 2 h, 25 µM [4]: 21 ×10⁻⁶ cm/s
SMILES: Cl.O=C(O)CNC(=O)c1c(O)cc(C2CCCCC2)n2ncnc12
Activity [3]: 540 pg/mL

Papp A→B at 2 h, 25 µM [4]: 9.9 ×10⁻⁶ cm/s
SMILES: CCCCc1cc(O)c(C(=O)NCC(=O)O)c2ncnn12.Cl
Activity [5]: Active
Activity [6]: inactive
Activity [1]: Non-Toxic
Activity [2]: 2200 pg/mL
Activity [3]: 3700 pg/mL

Papp A→B at 2 h, 25 µM [4]: < 0.4 ×10⁻⁶ cm/s
SMILES: Cl.O=C(O)CNC(=O)c1c(O)ccn2cnnc12

Papp A→B at 2 h, 25 µM [4]: 2.5 ×10⁻⁶ cm/s
SMILES: Cl.O=C(O)CNC(=O)c1c(O)cc(-c2ccccc2)n2ncnc12
Activity [3]: <320 pg/mL

Papp A→B at 2 h, 25 µM [4]: 15 ×10⁻⁶ cm/s
SMILES: O=C(O)CNC(=O)c1c(O)cc(-c2cccc(Cl)c2)c2ncnn12
Activity [3]: <265 pg/mL

Papp A→B at 2 h, 25 µM [4]: 9.3 ×10⁻⁶ cm/s
SMILES: CCc1c(O)c(C(=O)NCC(=O)O)c2ncnn2c1CC.Cl
Activity [3]: 1100 pg/mL

Papp A→B at 2 h, 25 µM [4]: 15 ×10⁻⁶ cm/s
SMILES: CCCCCc1cn2ncnc2c(C(=O)NCC(=O)O)c1O.Cl
Activity [3]: <330 pg/mL

Papp A→B at 2 h, 25 µM [4]: 63 ×10⁻⁶ cm/s
SMILES: O=C(O)CNC(=O)c1nc(Cl)c2ccccc2c1O

SMILES: Cl.O=C(O)CNC(=O)c1c(O)cc(CCc2ccccc2)n2ncnc12
remaining at 2 h, 10 µM [7]: 94%
solubility at 4 h [8]: 1300 µM
IC50 [9]: > 100 µM
bioavailability [10]: 75%
half-life [11]: 1.4 h
IC50 [12]: > 100 µM
Activity [1]: Non-Toxic
Cmax [13]: 2700 ng/mL
remaining at 2 h, 10 µM [14]: 100%
Vd [15]: 0.28 L/kg
Tmax [16]: 0.33 h
Activity [17]: Dose-dependent effect
Activity [2]: 17000 pg/mL
Activity [3]: 6500 pg/mL
IC50 [18]: > 100 µM
MRT [19]: 1.8 h
IC50 [20]: > 100 µM
IC50 [21]: > 100 µM
solubility at 4 h [22]: > 2900 µM
IC50 [23]: > 100 µM
IC50 [24]: > 100 µM
IC50 [25]: > 100 µM
IC50 [26]: > 100 µM
EC50 [27]: 5.7 µM
remaining at 2 h, 10 µM [28]: 94%
remaining at 2 h, 10 µM [29]: 98%
Papp A→B at 2 h, 25 µM [4]: 13 ×10⁻⁶ cm/s
IC50 [30]: > 100 µM
clearance [31]: 2.7 mL/min/kg
